Source: patent publication US20240398784A1, “C-LINKED ISOQUINOLINE AMIDES AS LRRK2 INHIBITORS, PHARMACEUTICAL COMPOSITIONS, AND USES THEREOF” (Merck Sharp & Dohme LLC, priority 2021, published 2024)

Each molecule was assayed against LRRK2 G2019S (Homo sapiens, UniProt Q5S007, G2019S) (assay: LRRK2 G2019S Km ATP LanthaScreen assay). Conditions: read-out: LRRK2 pIC50 (converted).
Type: biochemical
Protocol: Unless otherwise noted, all reactions are magnetically stirred. Unless otherwise noted, when diethyl ether is used in the experiments described below, it is Fisher ACS certified material and is stabilized with BHT. Unless otherwise noted, “concentrated” and/or “solvent removed under reduced pressure” means evaporating the solvent from a solution or mixture using a rotary evaporator or vacuum pump. Unless otherwise noted, flash chromatography is carried out on a Teledyne Isco (Lincoln, NE), Analogix (Burlington, WI), or Biotage (Stockholm, SWE) automated chromatography system using a commercially available cartridge as the column. Columns may be purchased from Teledyne Isco, Analogix, Biotage, Varian (Palo Alto, CA), or Supelco (Bellefonte, PA) and are usually filled with silica gel as the stationary phase. Reverse phase prep-HPLC conditions, where used, can be found at the end of each experimental section. Aqueous solutions were concentrated on a Genevac (Ipswich, ENG) or by freeze-drying/lyophilization.

Sequence of LRRK2 G2019S (Q5S007 whole entry G2019S): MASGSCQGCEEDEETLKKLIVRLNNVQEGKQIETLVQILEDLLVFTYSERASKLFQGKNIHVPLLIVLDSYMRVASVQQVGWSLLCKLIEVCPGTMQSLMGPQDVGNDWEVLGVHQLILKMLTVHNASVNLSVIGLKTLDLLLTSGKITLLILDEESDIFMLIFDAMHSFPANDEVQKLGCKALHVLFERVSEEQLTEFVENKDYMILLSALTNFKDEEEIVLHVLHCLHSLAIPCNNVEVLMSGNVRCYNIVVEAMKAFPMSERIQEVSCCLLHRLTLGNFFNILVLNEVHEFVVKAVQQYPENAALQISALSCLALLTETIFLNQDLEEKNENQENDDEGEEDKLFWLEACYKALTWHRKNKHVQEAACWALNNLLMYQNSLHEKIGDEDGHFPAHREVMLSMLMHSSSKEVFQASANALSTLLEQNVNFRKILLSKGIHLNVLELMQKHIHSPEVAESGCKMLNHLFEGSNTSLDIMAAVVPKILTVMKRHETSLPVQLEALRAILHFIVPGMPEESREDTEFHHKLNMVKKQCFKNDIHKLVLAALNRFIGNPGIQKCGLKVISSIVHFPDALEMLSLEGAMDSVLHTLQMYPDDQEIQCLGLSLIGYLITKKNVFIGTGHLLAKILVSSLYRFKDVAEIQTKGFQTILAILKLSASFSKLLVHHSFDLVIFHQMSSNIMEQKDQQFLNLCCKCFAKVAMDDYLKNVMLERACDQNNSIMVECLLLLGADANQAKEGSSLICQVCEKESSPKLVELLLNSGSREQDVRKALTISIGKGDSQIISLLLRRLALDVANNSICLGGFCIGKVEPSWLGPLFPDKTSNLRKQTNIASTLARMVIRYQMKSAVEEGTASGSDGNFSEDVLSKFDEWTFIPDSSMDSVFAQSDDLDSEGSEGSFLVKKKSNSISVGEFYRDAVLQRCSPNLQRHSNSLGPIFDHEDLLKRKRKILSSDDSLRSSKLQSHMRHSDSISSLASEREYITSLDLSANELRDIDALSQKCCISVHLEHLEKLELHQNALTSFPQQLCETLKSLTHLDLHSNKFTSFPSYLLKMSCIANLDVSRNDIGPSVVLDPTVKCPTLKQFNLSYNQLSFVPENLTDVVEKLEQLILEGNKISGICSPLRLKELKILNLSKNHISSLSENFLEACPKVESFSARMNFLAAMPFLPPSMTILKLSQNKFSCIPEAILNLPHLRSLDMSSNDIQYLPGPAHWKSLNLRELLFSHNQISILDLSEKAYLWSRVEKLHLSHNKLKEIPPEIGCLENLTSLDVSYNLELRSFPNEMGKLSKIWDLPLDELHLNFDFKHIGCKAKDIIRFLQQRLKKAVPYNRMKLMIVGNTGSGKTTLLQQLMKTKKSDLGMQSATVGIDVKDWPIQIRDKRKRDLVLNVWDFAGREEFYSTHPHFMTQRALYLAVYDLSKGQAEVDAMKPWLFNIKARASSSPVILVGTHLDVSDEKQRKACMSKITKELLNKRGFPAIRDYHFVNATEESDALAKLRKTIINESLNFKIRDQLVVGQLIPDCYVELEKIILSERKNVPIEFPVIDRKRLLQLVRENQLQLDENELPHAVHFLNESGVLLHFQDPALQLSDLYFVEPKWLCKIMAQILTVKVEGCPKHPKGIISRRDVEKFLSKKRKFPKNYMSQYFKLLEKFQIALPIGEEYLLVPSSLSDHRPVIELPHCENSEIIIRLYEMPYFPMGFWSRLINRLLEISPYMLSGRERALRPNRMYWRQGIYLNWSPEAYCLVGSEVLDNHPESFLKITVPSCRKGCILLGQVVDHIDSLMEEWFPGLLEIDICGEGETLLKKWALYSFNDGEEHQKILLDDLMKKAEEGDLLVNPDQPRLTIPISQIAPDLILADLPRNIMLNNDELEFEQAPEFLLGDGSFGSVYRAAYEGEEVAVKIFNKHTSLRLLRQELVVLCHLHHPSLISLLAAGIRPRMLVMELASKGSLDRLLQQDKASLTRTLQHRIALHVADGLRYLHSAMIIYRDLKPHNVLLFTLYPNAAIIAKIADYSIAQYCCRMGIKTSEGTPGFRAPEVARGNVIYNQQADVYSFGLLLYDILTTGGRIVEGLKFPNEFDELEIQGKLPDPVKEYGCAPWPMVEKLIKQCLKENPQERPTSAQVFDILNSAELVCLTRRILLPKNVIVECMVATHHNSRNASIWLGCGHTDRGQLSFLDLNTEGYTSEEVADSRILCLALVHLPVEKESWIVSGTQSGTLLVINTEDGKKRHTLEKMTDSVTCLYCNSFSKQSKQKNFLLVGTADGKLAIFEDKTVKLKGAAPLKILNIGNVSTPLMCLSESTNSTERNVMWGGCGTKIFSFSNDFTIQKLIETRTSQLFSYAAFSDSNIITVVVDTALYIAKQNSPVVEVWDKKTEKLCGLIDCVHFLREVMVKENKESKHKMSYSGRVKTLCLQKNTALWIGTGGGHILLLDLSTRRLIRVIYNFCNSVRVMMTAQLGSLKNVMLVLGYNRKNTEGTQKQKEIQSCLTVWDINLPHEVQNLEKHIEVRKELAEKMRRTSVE

| SMILES | IC50 |
| --- | --- |
| CC1(N2CCC(c3cc4cc(NC(=O)C5C6COCC65)ncc4cc3Cl)CC2)CCOC1 (single isomer, unassigned) [Ex-6.12, N-(7-chloro-6-(1-(3-methyltetrahydrofuran-3-yl)piperidin-4-yl)isoquinolin-3-yl)-3-oxabicyclo[3.1.0]hexane-6-carboxamide] | 8.13 nM |
| Cc1nn(C)cc1CC(=O)Nc1cc2cc(C3CCN(C4(C)COCC4O)CC3)c(Cl)cc2cn1 (single isomer, unassigned) [Ex-1.40, N-(7-chloro-6-(1-((3R,4R or 3S,4S)-4-hydroxy-3-methyltetrahydrofuran-3-yl)piperidin-4-yl)isoquinolin-3-yl)-2-(1,3-dimethyl-1H-pyrazol-4-yl)acetamide] | 0.112 nM |
| Cc1cc2cnc(NC(=O)C3CC3c3ccccn3)cc2cc1C1CCN(C2(C)COCC2F)CC1 (single isomer, unassigned) [Ex-13.2, (1R,2R or 1S,2S)-N-(6-(1-((3R,4R or 3S,4S)-4-fluoro-3-methyltetrahydrofuran-3-yl)piperidin-4-yl)-7-methylisoquinolin-3-yl)-2-(pyridin-2-yl)cyclopropane-1-carboxamide] | 38.9 nM |
| O=C(Nc1cc2cc(C3CCC(N4CC(F)C4)CC3)c(Cl)cc2cn1)C1CC1c1ccccn1 (single isomer, unassigned) [Ex-5.2, (1R,2R or 1S,2S)-N-(7-chloro-6-((cis or trans)-4-(3-fluoroazetidin-1-yl)cyclohexyl)isoquinolin-3-yl)-2-(pyridin-2-yl)cyclopropane-1-carboxamide] | 661 nM |
| Cn1cc(C2CC2C(=O)Nc2cc3cc(C4(C#N)CC45CC5)ccc3cn2)cn1 (single isomer, unassigned) [Ex-1.24, (1R,2R or 1S,2S)-N-(6-((R or S)-1-cyanospiro[2.2]pentan-1-yl)isoquinolin-3-yl)-2-(1-methyl-1H-pyrazol-4-yl)cyclopropane-1-carboxamide] | 0.0813 nM |
| CC(C)(O)C1CC1C(=O)Nc1cc2cc(C3CCN(C4(C)COCC4F)CC3)c(Cl)cc2cn1 (single isomer, unassigned) [Ex-6.29, N-(7-chloro-6-(1-(4-fluoro-3-methyltetrahydrofuran-3-yl)piperidin-4-yl)isoquinolin-3-yl)-2-(2-hydroxypropan-2-yl)cyclopropane-1-carboxamide] | 24.5 nM |
| CC1(N2CCC(c3cc4cc(NC(=O)C5CC56CCOCC6)ncc4cc3Cl)CC2)CCOCC1F (single isomer, unassigned) [Ex-12.1, N-(7-chloro-6-(1-((3R,4R or 3S,4S)-3-fluoro-4-methyltetrahydro-2H-pyran-4-yl)piperidin-4-yl)isoquinolin-3-yl)-6-oxaspiro[2.5]octane-1-carboxamide] | 41.7 nM |
| Cc1cc2cnc(NC(=O)C3C(C)C3c3cnn(C)c3)cc2cc1C1CCN(C2(C)COCC2F)CC1 (single isomer, unassigned) [Ex-16.7, N-(6-(1-(4-fluoro-3-methyltetrahydrofuran-3-yl)piperidin-4-yl)-7-methylisoquinolin-3-yl)-2-methyl-3-(1-methyl-1H-pyrazol-4-yl)cyclopropane-1-carboxamide] | 0.0813 nM |
| CC(C)(O)C1CC(C(=O)Nc2cc3cc(C4CCN(C5(C)COCC5O)CC4)c(Cl)cc3cn2)C1 (stereo not shown) [Ex-2.14] | 0.186 nM |
| N#CC1(c2ccc3cnc(NC(=O)C4C5Oc6cc(Cl)ncc6C54)cc3c2)CC12CC2 (single isomer, unassigned) [Ex-1.33, (1S,1aR,6bS or 1R,1aS,6bR)-4-chloro-N-(6-((R or S)-1-cyanospiro[2.2]pentan-1-yl)isoquinolin-3-yl)-1a,6b-dihydro-1H-cyclopropa[4,5]furo[3,2-c]pyridine-1-carboxamide] | 28.2 nM |
| COC1CC(C(=O)Nc2cc3cc(C4(C#N)CC45CC5)ccc3cn2)C1 (single isomer, unassigned) [Ex-1.3, (1R,3R or 1S,3S)-N-(6-((R or S)-1-cyanospiro[2.2]pentan-1-yl)isoquinolin-3-yl)-3-methoxycyclobutane-1-carboxamide] | 0.631 nM |
| Cc1noc(C2CC2C(=O)Nc2cc3cc(C4CCN(C5(C)COCC5O)CC4)c(Cl)cc3cn2)n1 (single isomer, unassigned) [Ex-4.15, N-(7-chloro-6-(1-(4-hydroxy-3-methyltetrahydrofuran-3-yl)piperidin-4-yl)isoquinolin-3-yl)-2-(3-methyl-1,2,4-oxadiazol-5-yl)cyclopropane-1-carboxamide] | 0.0813 nM |
| N#CC1(c2ccc3cnc(NC(=O)C4CC45CCOCC5)cc3c2)CC12CC2 (single isomer, unassigned) [Ex-18.11, (R or S)-N-(6-((R or S)-1-cyanospiro[2.2]pentan-1-yl)isoquinolin-3-yl)-6-oxaspiro[2.5]octane-1-carboxamide] | 9.55 nM |
| CC(C)C1CC(C(=O)Nc2cc3cc(C4CCN(C5(C)COCC5O)CC4)c(Cl)cc3cn2)C1 (racemic) [Ex-1.22, Rac-N-(7-chloro-6-(1-(4-hydroxy-3-methyltetrahydrofuran-3-yl)piperidin-4-yl)isoquinolin-3-yl)-3-isopropylcyclobutane-1-carboxamide] | 0.977 nM |
| O=C(Nc1cc2cc(C3CCC(N4CC(F)(F)C4)CC3)c(Cl)cc2cn1)C1CC1c1ccccn1 (single isomer, unassigned) [Ex-5.6, N-(7-chloro-6-(4-(3,3-difluoroazetidin-1-yl)cyclohexyl)isoquinolin-3-yl)-2-(pyridin-2-yl)cyclopropane-1-carboxamide] | 912 nM |

The next lines start with the values.

| IC50 | SMILES |
| --- | --- |
| 2.82 nM | CC1(N2CCC(c3cc4cc(NC(=O)C5C6CCOCC65)ncc4cc3Cl)CC2)COCC1F (single isomer, unassigned) [Ex-6.43, N-(7-chloro-6-(1-(4-fluoro-3-methyltetrahydrofuran-3-yl)piperidin-4-yl)isoquinolin-3-yl)-3-oxabicyclo[4.1.0]heptane-7-carboxamide] |
| 2.57 nM | CN(C)C1CCC2C(C(=O)Nc3cc4cc(C5CCN(C6(C)COCC6O)CC5)c(Cl)cc4cn3)C21 (single isomer, unassigned) [Ex-4.27, N-(7-chloro-6-(1-(4-hydroxy-3-methyltetrahydrofuran-3-yl)piperidin-4-yl)isoquinolin-3-yl)-2-(dimethylamino)bicyclo[3.1.0]hexane-6-carboxamide] |
| 0.708 nM | N#CC1(c2ccc3cnc(NC(=O)Cc4cccnc4)cc3c2)CC12CC2 (single isomer, unassigned) [Ex-1.41, (R or S)-N-(6-(1-cyanospiro[2.2]pentan-1-yl)isoquinolin-3-yl)-2-(pyridin-3-yl)acetamide] |
| 14.1 nM | N#CC1(c2ccc3cnc(NC(=O)C4CCN(C(=O)C(F)(F)F)CC4)cc3c2)CC12CC2 (single isomer, unassigned) [Ex-1.30, N-(6-((R or S)-1-cyanospiro[2.2]pentan-1-yl)isoquinolin-3-yl)-1-(2,2,2-trifluoroacetyl)piperidine-4-carboxamide] |
| 0.427 nM | CC1(C)CCC(C(=O)Nc2cc3cc(C4CCN(C5(C)COCC5O)CC4)c(Cl)cc3cn2)CO1 (single isomer, unassigned) [Ex-4.26, N-(7-chloro-6-(1-(4-hydroxy-3-methyltetrahydrofuran-3-yl)piperidin-4-yl)isoquinolin-3-yl)-6,6-dimethyltetrahydrofuran-2H-pyran-3-carboxamide] |
| 33.1 nM | CCC1C(C(=O)Nc2cc3cc(C4CC(C#N)C4)c(Cl)cc3cn2)C1c1cnn(C)c1 (stereo not shown) [Ex-9.17, N-(7-chloro-6-(3-cyanocyclobutyl)isoquinolin-3-yl)-2-ethyl-3-(1-methyl-1H-pyrazol-4-yl)cyclopropane-1-carboxamide] |
| 60.3 nM | N#CC1(c2cc3cc(NC(=O)C4CC4c4ccccn4)ncc3cc2F)CC12CC2 (single isomer, unassigned) [Ex-18.14, (1R,2R or 1S,2S)-N-(6-((R or S)-1-cyanospiro[2.2]pentan-1-yl)-7-fluoroisoquinolin-3-yl)-2-(pyridin-2-yl)cyclopropane-1-carboxamide] |
| 5.62 nM | O=C(Nc1cc2cc(C3CCN(C4COC4)CC3)c(Cl)cc2cn1)C1CC(OC(F)F)C1 (single isomer, unassigned) [Ex-2.3] |
| 89.1 nM | CC1(C)CC(C(=O)Nc2cc3cc(C4CCN(C5(C)COCC5F)CC4)c(Cl)cc3cn2)CCO1 (single isomer, unassigned) [Ex-6.39, N-(7-chloro-6-(1-(4-fluoro-3-methyltetrahydrofuran-3-yl)piperidin-4-yl)isoquinolin-3-yl)-2,2-dimethyltetrahydro-2H-pyran-4-carboxamide] |
| 35.5 nM | COCC(C)c1cc2cc(NC(=O)C3CC34CCOCC4)ncc2cc1Cl (single isomer, unassigned) [Ex-9.12, N-(7-chloro-6-(1-methoxypropan-2-yl)isoquinolin-3-yl)-6-oxaspiro[2.5]octane-1-carboxamide] |
| 0.955 nM | Cc1cc2cnc(NC(=O)C3CC3c3ccccn3)cc2cc1C1CCN(C2(C)CCOC2)CC1 (single isomer, unassigned) [Ex-16.11, N-(7-methyl-6-(1-(3-methyltetrahydrofuran-3-yl)piperidin-4-yl)isoquinolin-3-yl)-2-(pyridin-2-yl)cyclopropane-1-carboxamide] |
| 39.8 nM | N#CC1(c2ccc3cnc(NC(=O)C4CCN(CC(F)(F)F)C4)cc3c2)CC12CC2 (stereo not shown) [Ex-2.44] |
| 2.34 nM | Cn1cc(C2CC2C(=O)Nc2cc3cc(C4CC(N5CC(F)C5)C4)c(Cl)cc3cn2)cn1 (single isomer, unassigned) [Ex-5.26, N-(7-chloro-6-(3-(3-fluoroazetidin-1-yl)cyclobutyl)isoquinolin-3-yl)-2-(1-methyl-1H-pyrazol-4-yl)cyclopropane-1-carboxamide] |
